Ki data for 13 compounds are collected here from BindingDB's records for doi:10.1021/bi990204w (National Institute of Diabetes and Digestive and Kidney …, 1999).

One assay concerns the target T1, Neuromedin-B receptor (Rattus norvegicus, UniProt P24053).
T1 sequence (P24053 whole entry): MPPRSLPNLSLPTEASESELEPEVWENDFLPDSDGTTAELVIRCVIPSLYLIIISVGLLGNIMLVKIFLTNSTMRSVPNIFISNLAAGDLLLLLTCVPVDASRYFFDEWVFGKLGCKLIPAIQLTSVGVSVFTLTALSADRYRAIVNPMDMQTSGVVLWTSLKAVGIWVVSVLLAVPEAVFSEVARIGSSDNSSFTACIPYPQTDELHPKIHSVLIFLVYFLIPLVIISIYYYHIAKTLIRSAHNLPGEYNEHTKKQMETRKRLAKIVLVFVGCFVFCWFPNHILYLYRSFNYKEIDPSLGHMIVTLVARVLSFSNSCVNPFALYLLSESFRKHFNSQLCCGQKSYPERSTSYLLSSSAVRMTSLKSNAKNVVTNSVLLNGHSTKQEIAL

Assay [1] concerns the target T2, Bombesin receptor subtype-3 (Homo sapiens, UniProt P32247).
T2 sequence (P32247 whole entry): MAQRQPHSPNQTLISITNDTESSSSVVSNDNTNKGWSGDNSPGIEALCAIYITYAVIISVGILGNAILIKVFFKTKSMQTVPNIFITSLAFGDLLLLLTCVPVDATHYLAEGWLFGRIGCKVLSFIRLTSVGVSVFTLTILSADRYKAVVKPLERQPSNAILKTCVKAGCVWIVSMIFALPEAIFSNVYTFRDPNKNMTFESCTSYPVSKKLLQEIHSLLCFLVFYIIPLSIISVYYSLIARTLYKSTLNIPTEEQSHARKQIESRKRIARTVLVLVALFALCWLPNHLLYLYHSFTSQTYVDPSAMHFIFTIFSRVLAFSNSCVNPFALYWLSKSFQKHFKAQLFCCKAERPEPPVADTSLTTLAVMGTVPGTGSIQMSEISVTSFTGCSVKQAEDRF

The target in assay [2] is Gastrin-releasing peptide receptor (Mus musculus, UniProt P21729).
Assay [3] deals with Gastrin-releasing peptide receptor (Rattus norvegicus, UniProt P52500).

“And” between values parts separate entries of the source, which are not always exact repeats. Equal values may be shown once. Where a SMILES comes first, the peptide text is derived from it. Bridges are numbered along the chain shown (N, C = ends). [ ]: non-standard residue; d: D form. 2Nal = N[C@@H](Cc1ccc2ccccc2c1)C(=O)O; d2Nal = N[C@H](Cc1ccc2ccccc2c1)C(=O)O; pGlu = O=C1CC[C@@H](C(=O)O)N1; Nle = CCCC[C@H](N)C(=O)O; βAla = NCCC(=O)O

Chain of Gastrin-releasing peptide receptor (Mus musculus, UniProt P21729) (P21729 whole entry): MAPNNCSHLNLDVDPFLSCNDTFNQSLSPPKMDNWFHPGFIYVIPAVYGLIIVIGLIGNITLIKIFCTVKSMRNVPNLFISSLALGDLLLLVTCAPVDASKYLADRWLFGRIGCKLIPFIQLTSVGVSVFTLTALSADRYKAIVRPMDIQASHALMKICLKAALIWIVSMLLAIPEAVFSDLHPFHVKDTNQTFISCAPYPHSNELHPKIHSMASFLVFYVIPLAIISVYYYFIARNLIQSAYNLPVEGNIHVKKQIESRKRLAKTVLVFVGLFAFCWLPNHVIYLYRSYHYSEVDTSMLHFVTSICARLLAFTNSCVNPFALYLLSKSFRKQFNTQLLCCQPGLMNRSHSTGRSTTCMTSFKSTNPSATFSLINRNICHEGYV
Chain of Gastrin-releasing peptide receptor (Rattus norvegicus, UniProt P52500) (P52500 whole entry N28S): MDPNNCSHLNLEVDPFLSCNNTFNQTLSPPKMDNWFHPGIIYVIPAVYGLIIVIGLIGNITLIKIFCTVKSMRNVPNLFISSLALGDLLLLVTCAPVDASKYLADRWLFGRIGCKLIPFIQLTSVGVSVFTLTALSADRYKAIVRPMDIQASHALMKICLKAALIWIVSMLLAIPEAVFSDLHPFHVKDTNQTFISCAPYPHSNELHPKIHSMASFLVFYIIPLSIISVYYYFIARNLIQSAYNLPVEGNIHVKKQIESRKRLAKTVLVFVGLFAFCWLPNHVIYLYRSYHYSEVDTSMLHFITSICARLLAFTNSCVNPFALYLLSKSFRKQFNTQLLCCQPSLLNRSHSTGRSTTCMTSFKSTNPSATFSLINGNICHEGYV

As for `CCCC[C@H](NC(=O)[C@H](Cc1ccccc1)NC(=O)[C@H](Cc1c[nH]cn1)NC(=O)CCNC(=O)[C@@H](NC(=O)[C@H](C)NC(=O)[C@H](Cc1c[nH]c2ccccc12)NC(=O)[C@H](CCC(N)=O)NC(=O)[C@H](N)Cc1ccccc1)C(C)C)C(N)=O` [DPhe6,BetaAla11,Phe13,Nle14-Bn(6-14)] (H-[dF]QWAV[βAla]HF[Nle]-NH2), the Ki on Neuromedin-B receptor was 0.36 nM; in assay [1] it was 8.9 nM; in assay [2], 0.26 nM and 0.24 nM and 0.19 nM and 0.11 nM; in assay [3], 0.99 nM.
For the compound `CSCC[C@H](NC(=O)[C@H](Cc1ccccc1)NC(=O)[C@H](CO)NC(=O)CNC(=O)[C@@H](NC(=O)[C@H](C)NC(=O)[C@H](Cc1c[nH]c2ccccc12)NC(=O)[C@H](CC(C)C)NC(=O)[C@@H]1CCC(=O)N1)C(C)C)C(N)=O` [NSC_5748287], the Ki at Neuromedin-B receptor amounted to 47 nM; in assay [1], 2100 nM; in assay [3], 240 nM.
For `CSCC[C@H](NC(=O)[C@H](CC(C)C)NC(=O)[C@H](CO)NC(=O)CNC(=O)[C@@H](NC(=O)[C@H](C)NC(=O)[C@H](Cc1c[nH]c2ccccc12)NC(=O)[C@H](CC(C)C)NC(=O)[C@@H]1CCC(=O)N1)C(C)C)C(N)=O` [Leu8-phyllolitorin] ([pGlu]LWAVGSLM-NH2), the Ki on Neuromedin-B receptor was more than 10000 nM; in assay [1], 5400 nM; in assay [3] it was 420 nM.
On to `CSCC[C@H](NC(=O)[C@H](Cc1ccccc1)NC(=O)[C@H](Cc1c[nH]cn1)NC(=O)CNC(=O)[C@@H](NC(=O)[C@H](C)NC(=O)[C@H](Cc1c[nH]c2ccccc12)NC(=O)[C@H](CC(C)C)NC(=O)[C@@H]1CCC(=O)N1)[C@@H](C)O)C(N)=O` [CAS_125988], for which the Ki on Neuromedin-B receptor amounted to 460 nM; in assay [1] it was 3100 nM; in assay [3], 31 nM.
On to `CC(C)C[C@H](NC(=O)[C@H](Cc1cnc[nH]1)NC(=O)CNC(=O)[C@@H](NC(=O)[C@H](C)NC(=O)[C@H](Cc1c[nH]c2ccccc12)NC(=O)[C@H](CCC(N)=O)NC(=O)[C@@H](Cc1ccccc1)NC(=O)CNC(=O)[C@H](CC(C)C)NC(=O)[C@H](CCCN=C(N)N)NC(=O)[C@H](CCC(N)=O)NC(=O)[C@@H]1CCC(=O)N1)C(C)C)C(N)=O` [DPhe6-Bn(1-13)NH2], for which the Ki at Neuromedin-B receptor is more than 10000 nM; in assay [1] it was more than 10000 nM; in assay [3], 450 nM.
In the case of `CC(C)C[C@H](NC(=O)[C@H](CC(C)C)NC(=O)[C@@H](Cc1ccccc1)NC(=O)CNC(=O)[C@@H](NC(=O)[C@H](C)NC(=O)[C@H](Cc1c[nH]c2ccccc12)NC(=O)[C@H](CCC(N)=O)NC(=O)[C@@H](Cc1ccccc1)NC(=O)CNC(=O)[C@H](CC(C)C)NC(=O)[C@H](CCCN=C(N)N)NC(=O)[C@H](CCC(N)=O)NC(=O)[C@@H]1CCC(=O)N1)C(C)C)C(N)=O` [DPhe6,12,Leu14-Bn], the inhibition constant Ki on Neuromedin-B receptor was 2300 nM; in assay [1], more than 10000 nM; in assay [3], 430 nM.
On the same counts, the results for `CC(C)[C@@H]1NC(=O)[C@H](CCCCN)NC(=O)[C@@H](Cc2c[nH]c3ccccc23)NC(=O)[C@H](Cc2ccc(O)cc2)NC(=O)[C@H](NC(=O)[C@H](N)Cc2ccc3ccccc3c2)CSSC[C@@H](C(=O)N[C@@H](Cc2ccc3ccccc3c2)C(N)=O)NC1=O` [H-Nal-cyclo[DCys-Tyr-DTrp-Lys-Val-Cys]-Nal-NH2] (H-[d2Nal][dC]Y[dW]KVC[2Nal]-NH2; disulfide 2-7) are 220 nM, 2800 nM and more than 10000 nM.
On the same counts, the results for `CSCC[C@H](NC(=O)[C@H](CC(C)C)NC(=O)[C@H](Cc1cnc[nH]1)NC(=O)CNC(=O)[C@@H](NC(=O)[C@H](C)NC(=O)[C@H](Cc1c[nH]c2ccccc12)NC(=O)[C@H](CCC(N)=O)NC(=O)[C@H](N)Cc1ccccc1)C(C)C)C(N)=O` [DPhe6-Bn[6-14)] are 14 nM, more than 10000 nM and 2 nM.
On the same counts, the results for `CCCCNC(=O)[C@H](CC(C)C)NC(=O)[C@H](Cc1cnc[nH]1)NC(=O)[C@@H](C)NC(=O)[C@@H](NC(=O)[C@H](C)NC(=O)[C@H](Cc1c[nH]c2ccccc12)NC(=O)[C@H](CCC(N)=O)NC(=O)[C@H](N)Cc1ccc(O)cc1)C(C)C` [DTyr6,DAla11-Bn(6-13)butylamide] are 2300 nM, 5300 nM and 6 nM.
`CSCCC(NC(=O)C(CC(C)C)NC(=O)C(Cc1cnc[nH]1)NC(=O)CNC(=O)C(NC(=O)C(C)NC(=O)C(Cc1c[nH]c2ccccc12)NC(=O)C(Cc1cnc[nH]1)NC(=O)C(CC(N)=O)NC(=O)CN)C(C)C)C(N)=O` (stereo not given) [NSC_5486814]: the Ki on Neuromedin-B receptor is 140 nM; in assay [1], more than 10000 nM; in assay [3] it was 20 nM.
On to `CC(C)C[C@H](NC(=O)[C@H](Cc1cnc[nH]1)NC(=O)CNC(=O)[C@@H](NC(=O)[C@H](C)NC(=O)[C@H](Cc1c[nH]c2ccccc12)NC(=O)[C@H](CCC(N)=O)NC(=O)[C@H](N)Cc1ccccc1)C(C)C)C(=O)NN` [DPhe6-Bn(6-13)hydrazide], for which the inhibitory constant (Ki) is more than 10000 nM on Neuromedin-B receptor, more than 10000 nM in assay [1] and 1200 nM in assay [3].
`CSCC[C@H](NC(=O)[C@H](Cc1ccccc1)NC(=O)[C@H](Cc1cnc[nH]1)NC(=O)CNC(=O)[C@@H](NC(=O)[C@H](C)NC(=O)[C@H](Cc1c[nH]c2ccccc12)NC(=O)[C@H](CCC(N)=O)NC(=O)[C@H](CC(N)=O)NC(=O)CNC(=O)[C@H](CC(C)C)NC(=O)[C@H](CCCN=C(N)N)NC(=O)[C@H](CCC(N)=O)NC(=O)[C@@H]1CCC(=O)N1)C(C)C)C(N)=O` [Bombesin,Phe13]: the Ki at Neuromedin-B receptor is 6 nM; in assay [1] it was 6600 nM; in assay [3], 0.77 nM.
On the same counts, the results for `CSCC[C@H](NC(=O)[C@H](CC(C)C)NC(=O)[C@@H](Cc1ccccc1)NC(=O)CNC(=O)[C@@H](NC(=O)[C@H](C)NC(=O)[C@H](Cc1c[nH]c2ccccc12)NC(=O)[C@H](CCC(N)=O)NC(=O)[C@H](CC(N)=O)NC(=O)CNC(=O)[C@H](CC(C)C)NC(=O)[C@H](CCCN=C(N)N)NC(=O)[C@H](CCC(N)=O)NC(=O)[C@@H]1CCC(=O)N1)C(C)C)C(N)=O` [Dphe12-Bn] are 1900 nM, more than 10000 nM and more than 10000 nM.

In general, Ki refers to a measure of affinity in units of concentration, obtained from inhibition or displacement.
